From patent US4847300A, “Use of alpha-2I selective adrenergic receptor agonists in memory enhancement” (priority 1986, dated 1989)
Like-named read-outs stand apart in the source and are kept apart here.

Experiments:
aged monkeys [1] = conditions: early experiments, Science 230, 1273 (1985); cited from earlier work
aged monkeys [2] = conditions: 0.01 to 0.09 mg/kg; background; cited from earlier work
alpha-2R subtype [3] = conditions: cited from earlier work
alpha-2I subtype = conditions: second figure of the alpha-2R/alpha-2I Ki ratio; cited from earlier work
Korsakoff patients = conditions: about 0.01 to 0.02 mg/kg/day for two weeks; cited from earlier work
rhesus monkeys = conditions: catecholamine-depleted association cortex; cited from earlier work
aged monkeys [4] = conditions: for Sedation Score (0-IV): mean
Text: Sedation was rated using a 5 point scale where 0=normal level of arousal, I=quiet, II=sedated, III=intermittent sleeping and IV=too sedated to test.

Alzheimer patients = conditions: acute administration; study was terminated; cited from earlier work
aged monkeys [5] = experiment: blood pressure study in awake chaired aged monkeys; assay type: in vivo, rhesus monkeys; conditions: for drop in systolic blood pressure: at the high doses optimal for memory improvement; for Systolic Blood Pressure, change vs placebo control: mean
Procedure: In order to measure blood pressure in the awake, behaving monkey, three aged animals were adapted to primate chair restraint for several weeks. Blood pressure was measured using a pediatric digital blood pressure monitor. Each day the animals were […] immediately injected with the drug or saline. Fifteen minutes later, three blood pressure measurements were taken. […] Following memory testing, three more blood pressure measurements were taken before the monkey was returned to its home cage. The average blood pressure response before and after memory testing was calculated; drug response was compared to the previous response on saline Drug administration was initiated only after a stable blood pressure baseline was apparent.

aged monkeys [6] = experiment: variable delayed response task (spatial working memory) in aged monkeys; conditions: for average optimal dose for improving memory: aged monkeys; for average optimal dose for improving memory / Optimal dose: equimolar clonidine dose; for aged monkeys with improved memory: applicants' experiments; for Delayed Response Performance (% change from placebo control): mean; for Percent Improvement: at individual optimal dose; for Optimal dose: i.m.; for dose range in which effective: memory improvement, summary statement
alpha-2R subtype [7] = conditions: alpha-2R vs alpha-2I
Text: Receptor binding data provides evidence for two distinct alpha-2 receptor sub-types, C. […] One subtype binds with high affinity to the antagonist idazoxan, and is referred to as the "alpha-2I subtype"; the other subtype binds with high affinity to both idazoxan and to the antagonist, rauwolscine, and is referred to as the "alpha-2R subtype".

[8] = clinical blood pressure studies; cited from earlier work
[9] = dose .0001 mg/kg i.m. (equimolar clonidine dose)
[10] = dose .001 mg/kg i.m. (equimolar clonidine dose)
[11] = dose .01 mg/kg i.m. (equimolar clonidine dose)
[12] = dose .05 mg/kg i.m. (equimolar clonidine dose)

Q: Which “aged monkeys with improved memory” value (aged monkeys [1]) does the source give for `Clc1cccc(Cl)c1N=C1NCCN1` [Clonidine, clonidine] here?
A: 5/5

Q: And the “side effects at memory-enhancing doses” value (aged monkeys [2])?
A: profound hypotension and sedation

Q: What about the Ki (alpha-2R subtype [3]) of the same compound?
A: 27.7 nM

Q: What about the Ki (alpha-2I subtype) of the same compound?
A: 38.1 nM

Q: What about the “effect on memory performance” value (Korsakoff patients) of the same compound?
A: improved memory performance

Q: What about the “effect on behavioral deficit in spatial delayed alternation” value (“effect on behavioral deficit” below) (rhesus monkeys) of the same compound?
A: pharmacologically reversed

Q: And the “Sedation Score (0-IV)” value (aged monkeys [4]; dose .0001 mg/kg i.m.)?
A: 0

Q: What about the “Sedation Score (0-IV)” value (aged monkeys [4]; dose .001 mg/kg i.m.) of the same compound?
A: 0

Q: And the “Sedation Score (0-IV)” value (aged monkeys [4]; dose .01 mg/kg i.m.)?
A: I

Q: What about the “Sedation Score” value (aged monkeys [4]; monkey #121, at individual optimal dose) of the same compound?
A: 0

Q: What about the “Sedation Score” value (aged monkeys [4]; monkey #445, at individual optimal dose) of the same compound?
A: I

Q: And the “Sedation Score” value (aged monkeys [4]; monkey #449, at individual optimal dose)?
A: 0

Q: And the side effects (Alzheimer patients)?
A: severe hypotension and sedation

Q: What about the “drop in systolic blood pressure” value (aged monkeys [5]) of the same compound?
A: greater than 50 mm Hg

Q: What about the “Systolic Blood Pressure, change vs placebo control” value (from here on “Systolic Blood Pressure, change”) (aged monkeys [5]; dose .0001 mg/kg i.m.) of the same compound?
A: -23 mm Hg

Q: And the “Systolic Blood Pressure, change” value (aged monkeys [5]; dose .001 mg/kg i.m.)?
A: -8 mm Hg

Q: What about the “Systolic Blood Pressure, change” value (aged monkeys [5]; dose .01 mg/kg i.m.) of the same compound?
A: -32 mm Hg

Q: What about the “Systolic Blood Pressure, change” value (aged monkeys [5]; dose .05 mg/kg i.m.) of the same compound?
A: > -50 mm Hg

Q: And the “average optimal dose for improving memory” value (aged monkeys [6])?
A: 50 µg/kg

Q: What about the “aged monkeys with improved memory” value (aged monkeys [6]) of the same compound?
A: 8

Q: And the effect on memory (aged monkeys [6]; dose 0.0001 to 0.01 mg/kg)?
A: often impaired memory

Q: And the “Delayed Response Performance (% change from placebo control)” value (aged monkeys [6]; [9])?
A: -6%

Q: What about the “Delayed Response Performance (% change from placebo control)” value (aged monkeys [6]; [10]) of the same compound?
A: +3%

Q: What about the “Delayed Response Performance (% change from placebo control)” value (aged monkeys [6]; [11]) of the same compound?
A: +6%

Q: What about the “Delayed Response Performance (% change from placebo control)” value (aged monkeys [6]; [12]) of the same compound?
A: +12%

Q: And the “Percent Improvement” value (aged monkeys [6]; monkey #107)?
A: 27%

Q: And the Optimal dose (aged monkeys [6]; monkey #107)?
A: 10 µg/kg

Q: And the “Percent Improvement” value (aged monkeys [6]; monkey #113)?
A: 30%

Q: And the Optimal dose (aged monkeys [6]; monkey #113)?
A: 50 µg/kg

Q: What about the “Percent Improvement” value (aged monkeys [6]; monkey #121) of the same compound?
A: 17%

Q: What about the Optimal dose (aged monkeys [6]; monkey #121) of the same compound?
A: 5 µg/kg

Q: What about the “Percent Improvement” value (aged monkeys [6]; monkey #124) of the same compound?
A: 23%

Q: What about the Optimal dose (aged monkeys [6]; monkey #124) of the same compound?
A: 40 µg/kg

Q: And the “Percent Improvement” value (aged monkeys [6]; monkey #343)?
A: 30%

Q: What about the Optimal dose (aged monkeys [6]; monkey #343) of the same compound?
A: 200 µg/kg

Q: What about the “Percent Improvement” value (aged monkeys [6]; monkey #444) of the same compound?
A: 25%

Q: What about the Optimal dose (aged monkeys [6]; monkey #444) of the same compound?
A: 30 µg/kg

Q: What about the “Percent Improvement” value (aged monkeys [6]; monkey #445) of the same compound?
A: 18%

Q: What about the Optimal dose (aged monkeys [6]; monkey #445) of the same compound?
A: 40 µg/kg

Q: What about the “Percent Improvement” value (aged monkeys [6]; monkey #446) of the same compound?
A: 17%

Q: What about the Optimal dose (aged monkeys [6]; monkey #446) of the same compound?
A: 80 µg/kg

Q: And the “Percent Improvement” value (aged monkeys [6]; monkey #447)?
A: 23%

Q: What about the Optimal dose (aged monkeys [6]; monkey #447) of the same compound?
A: 60 µg/kg

Q: And the “Percent Improvement” value (aged monkeys [6]; monkey #448)?
A: 30%

Q: And the Optimal dose (aged monkeys [6]; monkey #448)?
A: 70 µg/kg

Q: What about the “Percent Improvement” value (aged monkeys [6]; monkey #449) of the same compound?
A: 23%

Q: What about the Optimal dose (aged monkeys [6]; monkey #449) of the same compound?
A: 1 µg/kg

Q: Which “effect on behavioral deficit” value (rhesus monkeys) does the source give for `CN1CCc2cccc3c2[C@H]1Cc1ccc(O)c(O)c1-3` [apomorphine] here?
A: pharmacologically reversed

Q: For `C=CCN1CCc2nc(N)sc2CC1` [BHT-920], which Ki (alpha-2R subtype [3]) is on record?
A: 62.2 nM

Q: What about the Ki (alpha-2I subtype) of the same compound?
A: 138 nM

Q: What about the “selectivity for the alpha-2R subtype” value (alpha-2R subtype [7]) of the same compound?
A: two times more selective

Q: And the “drop in systolic blood pressure” value (aged monkeys [5])?
A: greater than 50 mm Hg

Q: What about the “Systolic Blood Pressure, change” value (aged monkeys [5]; dose .0001 mg/kg i.m.) of the same compound?
A: -9 mm Hg

Q: And the “Systolic Blood Pressure, change” value (aged monkeys [5]; dose .001 mg/kg i.m.)?
A: -8 mm Hg

Q: What about the “Systolic Blood Pressure, change” value (aged monkeys [5]; dose .01 mg/kg i.m.) of the same compound?
A: -37 mm Hg

Q: And the “Systolic Blood Pressure, change” value (aged monkeys [5]; dose .05 mg/kg i.m.)?
A: > -50 mm Hg

Q: What about the “hypotensive effects compared with the other agonists” value (aged monkeys [5]; monkey #445, FIG. 3) of the same compound?
A: very similar to those of clonidine

Q: What about the “average optimal dose for improving memory” value (aged monkeys [6]) of the same compound?
A: 70 µg/kg

Q: What about the “Delayed Response Performance (% change from placebo control)” value (aged monkeys [6]; [9]) of the same compound?
A: 0%

Q: What about the “Delayed Response Performance (% change from placebo control)” value (aged monkeys [6]; [10]) of the same compound?
A: -3%

Q: And the “Delayed Response Performance (% change from placebo control)” value (aged monkeys [6]; [11])?
A: +9%

Q: And the “Delayed Response Performance (% change from placebo control)” value (aged monkeys [6]; [12])?
A: +8%

Q: What about the “Delayed Response Performance (% change from placebo control)” value (aged monkeys [6]; dose .08 mg/kg i.m. (equimolar clonidine dose)) of the same compound?
A: +15%

Q: What does the source list for `N=C(N)N/N=C/c1c(Cl)cccc1Cl` [Guanabenz, guanabenz]?
A: Ki (alpha-2R subtype [3]): 36.7 nM; Ki (alpha-2I subtype): 5.3 nM; Sedation Score (0-IV) (aged monkeys [4]; dose .00000005 mg/kg i.m.): 0; Sedation Score (0-IV) (aged monkeys [4]; dose .00001 mg/kg i.m.): 0; Sedation Score (0-IV) (aged monkeys [4]; dose .0001 mg/kg i.m.): 0; Sedation Score (0-IV) (aged monkeys [4]; dose .001 mg/kg i.m.): 0; Sedation Score (0-IV) (aged monkeys [4]; dose .01 mg/kg i.m.): 0; Sedation Score (0-IV) (aged monkeys [4]; dose .05 mg/kg i.m.): I; hypotensive effects compared with the other agonists (aged monkeys [5]; rhesus monkey, in vivo): more hypotensive side effects than guanfacine, but fewer side effects than clonidine; Delayed Response Performance (% change from placebo control) (aged monkeys [6]; dose .00000005 mg/kg i.m. (equimolar clonidine dose)): +8%; Delayed Response Performance (% change from placebo control) (aged monkeys [6]; dose .00001 mg/kg i.m. (equimolar clonidine dose)): -1%; Delayed Response Performance (% change from placebo control) (aged monkeys [6]; [9]): +1%; Delayed Response Performance (% change from placebo control) (aged monkeys [6]; [10]): -2%; Delayed Response Performance (% change from placebo control) (aged monkeys [6]; [11]): +7%; Delayed Response Performance (% change from placebo control) (aged monkeys [6]; [12]): +7%; dose range in which effective (aged monkeys [6]): picogram/kg range; doses at which memory improved (aged monkeys [6]; monkey #445, FIG. 3): 5e-05 to 10 µg/kg

Q: Which results are given for `N=C(N)NC(=O)Cc1c(Cl)cccc1Cl` [Guanfacine, guanfacine]?
A: potency relative to clonidine [8]: 1/10; Ki (alpha-2R subtype [3]): 340 nM; Ki (alpha-2I subtype): 22.6 nM; Sedation Score (aged monkeys [4]; rhesus monkey, in vivo): 0; sedation scores (aged monkeys [4]; rhesus monkey, in vivo): 0; Systolic Blood Pressure, change vs placebo control (aged monkeys [5]; dose .0001 mg/kg i.m.): +3 mm Hg; Systolic Blood Pressure, change vs placebo control (aged monkeys [5]; dose .001 mg/kg i.m.): +6 mm Hg; Systolic Blood Pressure, change vs placebo control (aged monkeys [5]; dose .01 mg/kg i.m.): -11 mm Hg; Systolic Blood Pressure, change vs placebo control (aged monkeys [5]; dose .05 mg/kg i.m.): -21 mm Hg; average change in systolic blood pressure (aged monkeys [5]; low, memory-improving doses): +6 mm Hg; average optimal dose for improving memory (aged monkeys [6]): about 0.001 mg/kg; aged monkeys with improved memory (aged monkeys [6]): 11/11; Delayed Response Performance (% change from placebo control) (aged monkeys [6]; [9]): +9%; Delayed Response Performance (% change from placebo control) (aged monkeys [6]; [10]): +10%; Delayed Response Performance (% change from placebo control) (aged monkeys [6]; [11]): +10%; Delayed Response Performance (% change from placebo control) (aged monkeys [6]; [12]): -6%; duration of memory effects (aged monkeys [6]; low doses): up to four days; dose range in which effective (aged monkeys [6]): nanogram/kg range; Percent Improvement (aged monkeys [6]; monkey #107): 20%; Optimal dose (aged monkeys [6]; monkey #107): 10 µg/kg; Percent Improvement (aged monkeys [6]; monkey #113): 23%; Optimal dose (aged monkeys [6]; monkey #113): 0.001 µg/kg; Percent Improvement (aged monkeys [6]; monkey #121): 10%; Optimal dose (aged monkeys [6]; monkey #121): 0.001 µg/kg; Percent Improvement (aged monkeys [6]; monkey #124): 18%; Optimal dose (aged monkeys [6]; monkey #124): 0.1 µg/kg; Percent Improvement (aged monkeys [6]; monkey #343): 13%; Optimal dose (aged monkeys [6]; monkey #343): 0.01 µg/kg; Percent Improvement (aged monkeys [6]; monkey #444): 13%; Optimal dose (aged monkeys [6]; monkey #444): 10 µg/kg; Percent Improvement (aged monkeys [6]; monkey #445): 20%; Optimal dose (aged monkeys [6]; monkey #445): 1 µg/kg; Percent Improvement (aged monkeys [6]; monkey #446): 10%; Optimal dose (aged monkeys [6]; monkey #446): 10 µg/kg; Percent Improvement (aged monkeys [6]; monkey #447): 20%; Optimal dose (aged monkeys [6]; monkey #447): 1 µg/kg; Percent Improvement (aged monkeys [6]; monkey #448): 23%; Optimal dose (aged monkeys [6]; monkey #448): 0.01 µg/kg; Percent Improvement (aged monkeys [6]; monkey #449): 20%; Optimal dose (aged monkeys [6]; monkey #449): 1 µg/kg

Q: With `N[C@@H](Cc1ccc(O)c(O)c1)C(=O)O` [L-dopa] as the compound, how does the “effect on behavioral deficit” value (rhesus monkeys) read?
A: pharmacologically reversed
